Source: US11174253B2, “Compound and pharmaceutical composition containing the same” (ALPHALA CO., LTD., priority 2017, dated 2021)

Key:
Type in all cases: cell-based
[1] = system: hepatocellular carcinoma cell line Hep3B; assay: Growth inhibition of Hep3B cells, 48 hr treatment, Hoechst 33342 nucleus count (GE InCell 2200); conditions: Homo sapiens
In short: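 Compound exposure lasted 48 hr at 37° C, 5% CO2. Surviving nuclei were counted after Hoechst 33342 staining, and survival was expressed as the treated/non-treated cell number ratio, including the ratio at 10 μM compound.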

[2] = system: Hep3B hepatocellular carcinoma cell line; assay: MTS cell viability assay (NCI-60 methodology), GI50/LC50, Hep3B; conditions: Homo sapiens, 48 h, Hep3B cells, 2 days incubation with compound
Protocol: (§1) The number of treated cells was determined by GE InCell 2200 system, and treated cells were stained with Hoechst 33342 which can reveal the remained nucleus in culture plate. The proportion of survival cells then were calculated with the ratio of treated/non-treated cells. The growth inhibition/cytotoxic effect of selected compounds were evaluated by the following protocol of NCI-60 screening platform. The human tumor cell lines are plating on a 96 well plate in a fixed density 24 hr prior compound treatment. Compounds with multiple concentrations are then added into each well for further 48 hr incubation. Cell viability is assessed by MTS method and the potency of compound is represented by GI50 and LC50 calculated by MTS result.
(§2) The cell viability measurement is based on the NCI-60 screening methodology (Nat. Rev. Cancer 6, 813-823, 2006). Briefly, cells are inoculated into 96-well plates at the optimal plating density. After 24 h, one of the two plates for each cell line is processed to determine a time zero cell viability (Tz) by MTS assay (Promega). Compounds are added over a 2-fold serial dilution to provide a total five drug concentrations plus DMSO control. Plates are incubated for a further 2 days, then measured cell viability by MTS assay [control growth (C) and test growth in the presence of drug at the five concentration levels (Ti)]. Growth inhibition of 50% (GI50) is calculated from [(Ti−Tz)/(C−Tz)]×100=50, which is the drug concentration resulting in a 50% reduction of control cells during the drug incubation. The LC50 is calculated from [(Ti−Tz)/Tz]×100=−50, which is the drug concentration resulting in a 50% reduction at the end of the drug treatment as compared to that at the beginning.
(§3) Herein, Hep3B refers to hepatocellular carcinoma cell line, SW480 refers to colon adenocarcinoma cell line, and NCI-H460 refers to human lung cancer cell line.

[3] = system: SW480 colon adenocarcinoma cell line; assay: MTS cell viability assay (NCI-60 methodology), GI50/LC50, SW480; conditions: Homo sapiens, 48 h, SW480 cells, 2 days incubation with compound
Protocol: as §1, §2, §3

[4] = system: NCI-H460 human lung cancer cell line; assay: MTS cell viability assay (NCI-60 methodology), GI50/LC50, NCI-H460; conditions: 48 h, NCI-H460 cells, 2 days incubation with compound
Protocol: as §1, §2, §3

[5] = Table 1, ratio of number of tumor cells treated with 10 μM compound to non-treated cells
[6] = Table 5, ratio of number of tumor cells treated with 10 μM compound to non-treated cells

SMILES	viability at 10 µM [1, 5]	GI50 [2]	LC50 [2]	GI50 [3]	LC50 (NCI-60 lethal concentration, 50% net cell loss vs time zero) [3]	GI50 [4]	LC50 (concentration giving 50% net cell loss versus time zero, NCI-60 definition) [4]	viability at 10 µM ([1]; Table 3, ratio of number of tumor cells treated with 10 μM compound to non-treated cells)	viability at 10 µM [1, 6]
CCOc1ccc(-c2nnc(NC(=O)Cc3ccc4nc(N)sc4c3)s2)cc1 [Compound 1-2, 2-(2-aminobenzo[d]thiazol-6-yl)-N-(5-(4-ethoxyphenyl)-1,3,4-thiadiazol-2-yl)acetamide]	61%	160 nM	480 nM	3550 nM	8930 nM	860 nM	1240 nM		
CCOc1ccc(-c2nnc(NC(=O)Cc3ccc4nc(N)sc4c3)s2)c(OCC)c1 [Compound 1-18, 2-(2-aminobenzo[d]thiazol-6-yl)-N-(5-(2,4-diethoxyphenyl)-1,3,4-thiadiazol-2-yl)acetamide]	70%	160 nM	480 nM	190 nM	580 nM	200 nM	600 nM		
CCC(CC)Oc1ccccc1-c1nnc(NC(=O)Cc2ccc3nc(N)sc3c2)s1 [Compound 1-22, 2-(2-aminobenzo[d]thiazol-6-yl)-N-(5-(2-(pentan-3-yloxy)phenyl)-1,3,4-thiadiazol-2-yl)acetamide]	66%	90 nM	8360 nM	1230 nM		2670 nM			
CCCCOc1cc(OCC)ccc1-c1nnc(NC(=O)Cc2ccc3nc(N)sc3c2)s1 [Compound 1-23, 2-(2-aminobenzo[d]thiazol-6-yl)-N-(5-(2-butoxy-4-ethoxyphenyl)-1,3,4-thiadiazol-2-yl)acetamide]	71%	480 nM	480 nM	520 nM	520 nM	580 nM	580 nM		
CCOc1cnccc1-c1nnc(NC(=O)Cc2ccc3nc(N)sc3c2)s1 [Compound 1-25, 2-(2-aminobenzo[d]thiazol-6-yl)-N-(5-(3-ethoxypyridin-4-yl)-1,3,4-thiadiazol-2-yl)acetamide]	54%	170 nM	500 nM	350 nM	1040 nM	320 nM			
CCOCOc1cc(OCC)ccc1-c1nnc(NC(=O)Cc2ccc3nc(N)sc3c2)s1 [Compound 1-26, 2-(2-aminobenzo[d]thiazol-6-yl)-N-(5-(4-ethoxy-2-(ethoxymethoxy)phenyl)-1,3,4-thiadiazol-2-yl)acetamide]	59%	160 nM	490 nM	210 nM	630 nM	200 nM	590 nM		
CCOc1ccc(-c2nnc(NC(=O)Cc3ccc4nc(N)sc4c3)s2)c(OCCN(C)C)c1 [Compound 1-29, 2-(2-aminobenzo[d]thiazol-6-yl)-N-(5-(2-(2-(dimethylamino)ethoxy)-4-ethoxyphenyl)-1,3,4-thiadiazol-2-yl)acetamide]		200 nM	1100 nM	3340 nM		5200 nM			
CCOc1ccc(-c2nnc(NC(=O)Cc3ccc4nc(N)sc4c3)s2)c(OCCOC)c1 [Compound 1-32, 2-(2-aminobenzo[d]thiazol-6-yl)-N-(5-(4-ethoxy-2-(2-methoxyethoxy)phenyl)-1,3,4-thiadiazol-2-yl)acetamide]		170 nM	540 nM	230 nM	690 nM	140 nM	600 nM		
CCOc1cc(OCC)c(-c2nnc(NC(=O)Cc3ccc4nc(N)sc4c3)s2)cn1 [Compound 1-35, 2-(2-aminobenzo[d]thiazol-6-yl)-N-(5-(4,6-diethoxypyridin-3-yl)-1,3,4-thiadiazol-2-yl)acetamide]	42%	550 nM	3680 nM			1420 nM			
CCOc1cc(OCC)c(-c2nnc(N(C)C(=O)Cc3ccc4nc(N)sc4c3)s2)cn1 [Compound 1-37, 2-(2-aminobenzo[d]thiazol-6-yl)-N-(5-(4,6-diethoxypyridin-3-yl)-1,3,4-thiadiazol-2-yl)-N-methylacetamide]	47%	840 nM	1240 nM	1260 nM		1350 nM			
CCOc1ccc(-c2nc(NC(=O)Cc3ccc4nc(N)sc4c3)sc2-c2ccc(F)cc2)cc1 [Compound 3-9, 2-(2-aminobenzo[d]thiazol-6-yl)-N-(4-(4-ethoxyphenyl)-5-(4-fluorophenyl)thiazol-2-yl)acetamide]		2270 nM		8950 nM		2390 nM			
Nc1nc2ccc(CC(=O)Nc3nc(-c4ccc(Br)cc4)c(-c4ccc(Br)cc4)s3)cc2s1 [Compound 3-10, 2-(2-aminobenzo[d]thiazol-6-yl)-N-(4,5-bis(4-bromophenyl)thiazol-2-yl)acetamide]		510 nM	1290 nM	1210 nM	7080 nM	840 nM	6620 nM	52%	
CCOc1ccc(-c2nc(NC(=O)c3ccc([N+](=O)[O-])s3)sc2Oc2ccccc2)cc1 [Compound 5-6, N-(4-(4-ethoxyphenyl)-5-phenoxythiazol-2-yl)-5-nitrothiophene-2-carboxamide]		1100 nM	4350 nM	2590 nM	5520 nM	1170 nM	3990 nM		42%
O=C(Nc1nc(-c2ccc(Br)cc2)c(Oc2ccc(C(F)(F)F)cc2)s1)c1ccc([N+](=O)[O-])s1 [Compound 5-7, N-(4-(4-bromophenyl)-5-(4-(trifluoromethyl)phenoxy)thiazol-2-yl)-5-nitrothiophene-2-carboxamide]		630 nM	1230 nM	320 nM	2800 nM	850 nM	1850 nM		31%
CCCOc1ccc(-c2nc(NC(=O)c3ccc([N+](=O)[O-])s3)sc2Oc2ccc(OC(F)(F)F)cc2)cc1 [Compound 5-8, 5-nitro-N-(4-(4-propoxyphenyl)-5-(4-(trifluoromethoxy)phenoxy)thiazol-2-yl)thiophene-2-carboxamide]		3430 nM				3010 nM	4660 nM		24%
CCCOc1ccc(-c2nc(NC(=O)c3ccc([N+](=O)[O-])s3)sc2Oc2ccccc2)cc1 [Compound 5-9, 5-nitro-N-(5-phenoxy-4-(4-propoxyphenyl)thiazol-2-yl)thiophene-2-carboxamide]		2430 nM				1110 nM	2860 nM		32%
CC(C)Oc1ccc(-c2nc(NC(=O)c3ccc([N+](=O)[O-])s3)sc2Oc2ccccc2)cc1 [Compound 5-10, N-(4-(4-isopropoxyphenyl)-5-phenoxythiazol-2-yl)-5-nitrothiophene-2-carboxamide]		2530 nM				880 nM	5310 nM		29%
O=C(Nc1nc(-c2ccc(Br)cc2)c(Oc2cccc(C(F)(F)F)c2)s1)c1ccc([N+](=O)[O-])s1 [Compound 5-11, N-(4-(4-bromophenyl)-5-(3-(trifluoromethyl)phenoxy)thiazol-2-yl)-5-nitrothiophene-2-carboxamide]		6540 nM		7040 nM		630 nM	3980 nM		21%
CC(C)(C)c1ccc(-c2nc(NC(=O)c3ccc([N+](=O)[O-])s3)sc2Oc2ccccc2)cc1 [Compound 5-14, N-(4-(4-(tert-butyl)phenyl)-5-phenoxythiazol-2-yl)-5-nitrothiophene-2-carboxamide]		340 nM	7350 nM	1510 nM		1720 nM			50%
O=C(Nc1nc(-c2ccc(Br)cc2)c(Oc2ccc(OC(F)(F)F)cc2)s1)c1ccc([N+](=O)[O-])s1 [Compound 5-18, N-(4-(4-bromophenyl)-5-(4-(trifluoromethoxy)phenoxy)thiazol-2-yl)-5-nitrothiophene-2-carboxamide]		3090 nM	4770 nM	2520 nM	4750 nM	6400 nM			
